Key:
A549 = test: Antiproliferative activity against human A549 cells assessed as reduction in cell viability after 48 hrs by MTT assay; format: functional, cell-based; settings: A549, 48 h
MDA-MB-231 = test: Antiproliferative activity against human MDA-MB-231 cells assessed as reduction in cell viability after 48 hrs by MTT assay; format: functional, cell-based; settings: MDA-MB-231, 48 h
L132 = test: Cytotoxicity against human L132 cells assessed as reduction in cell viability after 48 hrs by MTT assay; format: cell-based; settings: L132, 48 h
DU-145 = test: Antiproliferative activity against human DU-145 cells assessed as reduction in cell viability after 48 hrs by MTT assay; format: functional, cell-based; settings: DU-145, 48 h
U-87 MG = test: Antiproliferative activity against human U87 cells assessed as reduction in cell viability after 48 hrs by MTT assay; format: functional, cell-based, U-87MG ATCC
[1] = Inhibition of Saccharomyces cerevisiae alpha-glucosidase using p-nitophenyl alpha […]D-glucoside incubated for 45 mins

Row | Structure (SMILES) | IC50 (A549) | IC50 (MDA-MB-231) | IC50 (DU-145) | IC50 (U-87 MG) | IC50 [1] | IC50 (L132)
1 | C/C(=C\CC/C(C)=C/CC[C@@H]1[C@@]2(C)CCC(=O)C(C)(C)[C@H]2CC[C@@]1(C)O)CC/C=C(\C)C(=O)OCc1cn(-c2ccc(C(F)(F)F)cc2)nn1 | > 150 µM | > 150 µM | – | – | – | > 150 µM
2 | C/C(=C\CC/C(C)=C/CC[C@@H]1[C@@]2(C)CCC(=O)C(C)(C)[C@H]2CC[C@@]1(C)O)CC/C=C(\C)C(=O)OCc1cn(-c2ccccc2Br)nn1 | > 150 µM | > 150 µM | > 150 µM | – | – | > 150 µM
3 | COc1cccc(-n2cc(COC(=O)/C(C)=C/CC/C(C)=C/CC/C(C)=C/CC[C@@H]3[C@@]4(C)CCC(=O)C(C)(C)[C@H]4CC[C@@]3(C)O)nn2)c1 | > 150 µM | – | > 150 µM | – | 17.6 µM | –
4 | C/C(=C\CC/C(C)=C/CC[C@@H]1[C@@]2(C)CCC(=O)C(C)(C)[C@H]2CC[C@@]1(C)O)CC/C=C(\C)C(=O)OCc1cn(-c2ccccc2C(F)(F)F)nn1 | > 150 µM | > 150 µM | > 150 µM | – | 14.5 µM | > 150 µM
5 | C[C@H]1O[C@H](O[C@H]2[C@H](O)[C@@H](O)[C@@H](O[C@H]3[C@H](O)[C@@H](O)C(O)O[C@@H]3CO)O[C@@H]2CO)[C@H](O)[C@@H](O)[C@@H]1N[C@H]1C=C(CO)[C@@H](O)[C@H](O)[C@H]1O (some centres not stated) [ACARBOSE] | – | – | – | – | 2120 µM | –
6 | C/C(=C\CC/C(C)=C/CC[C@@H]1[C@@]2(C)CCC(=O)C(C)(C)[C@H]2CC[C@@]1(C)O)CC/C=C(\C)C(=O)OCc1cn(-c2ccccc2C)nn1 | > 150 µM | > 150 µM | > 150 µM | – | – | > 150 µM
7 | C/C(=C\CC/C(C)=C/CC[C@@H]1[C@@]2(C)CCC(=O)C(C)(C)[C@H]2CC[C@@]1(C)O)CC/C=C(\C)C(=O)OCc1cn(-c2ccccc2F)nn1 | > 150 µM | > 150 µM | > 150 µM | – | – | > 150 µM
8 | C/C(=C\CC/C(C)=C/CC[C@@H]1[C@@]2(C)CCC(=O)C(C)(C)[C@H]2CC[C@@]1(C)O)CC/C=C(\C)C(=O)OCc1cn(-c2cccc(C(F)(F)F)c2)nn1 | > 150 µM | > 150 µM | > 150 µM | – | 13.4 µM | –

The next lines start with results.

Row | IC50 (A549) | IC50 (MDA-MB-231) | IC50 (DU-145) | IC50 (U-87 MG) | IC50 [1] | Structure (SMILES) | IC50 (L132)
9 | > 150 µM | > 150 µM | 135 µM | – | – | COc1ccc(-n2cc(COC(=O)/C(C)=C/CC/C(C)=C/CC/C(C)=C/CC[C@@H]3[C@@]4(C)CCC(=O)C(C)(C)[C@H]4CC[C@@]3(C)O)nn2)cc1 | > 150 µM
10 | > 150 µM | – | > 150 µM | > 150 µM | 11.3 µM | C/C(=C\CC/C(C)=C/CC[C@@H]1[C@@]2(C)CCC(=O)C(C)(C)[C@H]2CC[C@@]1(C)O)CC/C=C(\C)C(=O)OCc1cn(-c2ccc(Br)cc2)nn1 | > 150 µM
11 | > 150 µM | – | > 150 µM | – | – | C/C(=C\CC/C(C)=C/CC[C@@H]1[C@@]2(C)CCC(=O)C(C)(C)[C@H]2CC[C@@]1(C)O)CC/C=C(\C)C(=O)OCc1cn(-c2ccc(C)cc2)nn1 | > 150 µM
12 | > 150 µM | – | > 150 µM | > 150 µM | 12.6 µM | C/C(=C\CC/C(C)=C/CC[C@@H]1[C@@]2(C)CCC(=O)C(C)(C)[C@H]2CC[C@@]1(C)O)CC/C=C(\C)C(=O)OCc1cn(-c2ccc(C(C)(C)C)cc2)nn1 | 65.8 µM
13 | > 150 µM | – | > 150 µM | – | – | C/C(=C\CC/C(C)=C/CC[C@@H]1[C@@]2(C)CCC(=O)C(C)(C)[C@H]2CC[C@@]1(C)O)CC/C=C(\C)C(=O)OCc1cn(-c2cccc(Br)c2)nn1 | > 150 µM
14 | > 150 µM | – | > 150 µM | > 150 µM | – | C/C(=C\CC/C(C)=C/CC[C@@H]1[C@@]2(C)CCC(=O)C(C)(C)[C@H]2CC[C@@]1(C)O)CC/C=C(\C)C(=O)OCc1cn(-c2ccc(F)cc2)nn1 | > 150 µM

— ChEMBL document CHEMBL4680137, “Synthesis and biological evaluation of some novel 1,2,3-triazole hybrids of myrrhanone B isolated from Commiphora mukul gum resin: Identification of potent antiproliferative leads active against prostate cancer cells (PC-3)” (Eur J Med Chem, 2020)
